From patent publication US7371829B2, “Haptens, immunogens, antibodies and conjugates to ketamine and its metabolites” (Randox Laboratories Limited, priority 2002, dated 2008)

Tests used:
[1] = test system: antiserum raised to immunogen C (hapten C-BSA), IgG fraction; assay: Competitive ELISA microtiter plate assay for ketamine and norketamine (conjugate A, hapten A-HRP, as detection reagent); type: binding, sheep; conditions: for IC50, CR = concentration of potential cross-reactant that causes 50% displacement of signal: potential cross-reactants, standards 0-500 ng/ml
Protocol: An aqueous solution of the immunogen prepared in Example 10 was formulated with Freund's Complete Adjuvant (FCA) to form an emulsion consisting of 4 mg/ml immunogen in 50% (v/v) FCA. Three sheep were immunised with this emulsion (1° immunisation), 0.25 ml being subcutaneously injected at each of four sites in the flank of each animal. The next immunisation (boost 1) contained 2 mg/ml immunogen and subsequent immunizations (boosts 2 to 11) contained 1 mg/ml immunogen. All boosts were emulsified in 50% (v/v) Freund's Incomplete Adjuvant (FIA) and were administered in the same manner as the 1° immunisation, at monthly intervals for 1 year. Blood sampling took place 7 to 14 days after each boost. Each sample was processed to produce antiserum, which was further purified by caprylic acid and ammonium sulfate precipitation to yield an immunoglobulin G (IgG) fraction. The IgG fraction was evaluated by competitive ELISA microtiter plate assay, as described in Example 16 below.
The wells of an enhanced binding 96 well polystyrene microtiter plate were coated with the IgG fraction of the antiserum raised to immunogen C (hapten C-BSA) (Example 10), diluted in 10 mM Tris, pH 8.5 (125 μl/well). The appropriate antibody coating dilution was determined using standard ELISA checkerboard techniques. The plate was incubated for 2 hours at 37° C., washed 4 times with Tris buffered saline containing Tween 20 (TBST) and tapped dry. Standard solutions of ketamine and norketamine were prepared in TBST at 0, 0.1, 0.5, 1, 5, 25, 100 and 500 ng/ml and 50 μl of each was added to the appropriate wells (FIG. 4). 75 μl of conjugate A (hapten A-HRP) (Example 11), diluted in Tris buffer (pH 7.2) containing EDTA, D-mannitol, sucrose, thimerosal and BSA, was added to each of the wells, as shown in FIG. 4. The appropriate dilution of conjugate was also determined using standard ELISA checkerboard techniques. The plate was incubated at 37° C. for 2 hours. Excess unbound conjugate was removed by washing 6 times over a 10 minute period with TBST.
125 μl of tetramethylbenzidine (TMB) substrate solution was added to each well of the plate that was then incubated for 15 to 20 minutes in the dark at room temperature. The reaction was terminated by addition of 125 μl 0.2M H2SO4 to each well. The absorbance was then measured at 450 nm using a microtiter plate reader.
In order to determine the specificity of the competitive ELISA for ketamine and norketamine, standard solutions were prepared in TBST at 0, 0.1, 0.5, 1, 5, 25, 100 and 500 ng/ml. Employing each series of standards in the ketamine competitive ELISA, calibration curves were generated and these were used to determine the cross-reactivity of the immunoassay with these substances. The results of this study are presented in Table 2, cross-reactivity of potential cross-reactants phencyclidine and dextromethorphan being calculated according to the following formula: % CR=IC50, Ketamine/IC50, CR×100
Where %CR is the percentage cross-reactivity, IC50, Ketamine is the concentration of ketamine that causes 50% displacement of signal and IC50, CR is the concentration of potential cross-reactant that causes 50% displacement of signal.

[2] = test system: Neogen kit antibodies developed against a ketamine hapten; conditions: Neogen ELISA kit; cited from earlier work
[3] = test system: antibodies to phenylcyclohexylamine derivative immunogens; conditions: Abbott immunoassay, Table 3(c) at page 18; cited from earlier work
[4] = test system: antibodies against five epitopes of phencyclidine (PCP)-like molecules; conditions: antibodies to PCP-like haptens conjugated to BSA; Table 2, page 475 of Owens et al; cited from earlier work
[5] = test system: antibodies to PCP and other arylcyclohexylamines; conditions: as indicated by high IC50 values, Table 1, page 667 of Owens et al; cited from earlier work
[6] = % CR=IC50, Ketamine/IC50, CR×100
[7] = antiserum to immunogen C, conjugate A
[8] = standard concentration 0.1 ng/ml
[9] = standard concentration 0.5 ng/ml
[10] = standard concentration 25 ng/ml
[11] = standard concentration 100 ng/ml
[12] = standard concentration 500 ng/ml

Row | SMILES | % CR = percentage cross-reactivity based on specificity to ketamine [1, 6] [%] | IC50, CR = concentration of potential cross-reactant that causes 50% displacement of signal [1] [mg/L] | % CR = percentage cross-reactivity based on specificity to ketamine [1, 7] [%] | IC50 = standard concentration which produces 50% B/B0 [1, 7] [mg/L] | % B/B0 [1, 8] [%] | % B/B0 [1, 9] [%] | % B/B0 ([1]; standard concentration 1 ng/ml) [%] | % B/B0 ([1]; standard concentration 5 ng/ml) [%] | % B/B0 [1, 10] [%] | % B/B0 [1, 11] [%] | % B/B0 [1, 12] [%] | cross-reactivity [2] [%] | cross-reactivity [3] | cross-reactivity [4] [%] | cross-reactivity [5]
1 | COc1ccc2c(c1)[C@]13CCCC[C@@H]1[C@H](C2)N(C)CC3 [Dextromethorphan] | <0.58 | >0.5 | – | – | – | – | – | – | – | – | – | – | – | – | –
2 | NC1(c2ccccc2Cl)CCCCC1=O (stereo not drawn) [Norketamine, [2-amino-2-(o-chlorophenyl)]cyclohexanone] | – | – | 138.1 | 0.0021 | 86.9 | 66.8 | 64.5 | 45.3 | 22.7 | 15.1 | 10.5 | 4.6 | – | – | –
3 | CNC1(c2ccccc2Cl)CCCCC1=O (racemic) [Ketamine, (±)-2-(o-chlorophenyl)-2-(methylamino) cyclohexanone] | – | – | 100.0 | 0.0029 | 92.1 | 82.8 | 67.9 | 42.6 | 25.0 | 18.4 | 11.6 | 100 | does not cross-react significantly | < 0.6 | low levels of cross-reactivity
4 | c1ccc(C2(N3CCCCC3)CCCCC2)cc1 [Phencyclidine] | <0.58 | >0.5 | – | – | – | – | – | – | – | – | – | – | – | – | –
